In the supplement of paper PMC10307832:

Legend:
Experiment in all cases: relative viability (nuclei count vs DMSO), 5 days (fraction); higher = more cells survive
Dabrafenib + AZD7762 = compound: CC(C)(C)c1nc(-c2cccc(NS(=O)(=O)c3c(F)cccc3F)c2F)c(-c2ccnc(N)n2)s1 [Dabrafenib] + NC(=O)Nc1cc(-c2cccc(F)c2)sc1C(=O)N[C@H]1CCCNC1 [AZD7762] (partner 0.2 µM)
In short: (§1)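 A single step with final 0.05% Triton X-100, 1% formaldehyde and 1 ug/ml Hoechst fixed the cells and stained nuclei 5 days after treatment. Lung cancer cell lines in 1536-well plates had been treated by pin tool the day after seeding with one drug alone or a fixed anchor-drug dose plus five library-drug doses (not always all listed) in √10 steps, and nuclei were counted on 4× images. Relative viability is the ratio of nuclei in treated wells to nuclei in vehicle wells, taken as the median of duplicate plates.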

VX-702 + Decitabine = compound: NC(=O)c1ccc(N(C(N)=O)c2c(F)cccc2F)nc1-c1ccc(F)cc1F [VX-702] + Nc1ncn([C@H]2C[C@H](O)[C@@H](CO)O2)c(=O)n1 [Decitabine] (partner 2 µM)
In short: as §1

VX-702 + Crizotinib = compound: NC(=O)c1ccc(N(C(N)=O)c2c(F)cccc2F)nc1-c1ccc(F)cc1F [VX-702] + C[C@@H](Oc1cc(-c2cnn(C3CCNCC3)c2)cnc1N)c1c(Cl)ccc(F)c1Cl [Crizotinib] (partner 1 µM)
In short: as §1

Dabrafenib + Palbociclib = compound: CC(C)(C)c1nc(-c2cccc(NS(=O)(=O)c3c(F)cccc3F)c2F)c(-c2ccnc(N)n2)s1 [Dabrafenib] + CC(=O)c1c(C)c2cnc(Nc3ccc(N4CCNCC4)cn3)nc2n(C2CCCC2)c1=O [Palbociclib] (partner 0.5 µM)
In short: as §1

Cell Line	relative viability (Dabrafenib + AZD7762; first compound 0.009487 µM)	relative viability (Dabrafenib + AZD7762; first compound 0.03 µM)	relative viability (Dabrafenib + AZD7762; first compound 0.09487 µM)	relative viability (Dabrafenib + AZD7762; first compound 0.3 µM)	relative viability (VX-702 + Decitabine; first compound 0.02 µM)	relative viability (VX-702 + Decitabine; first compound 0.2 µM)	relative viability (VX-702 + Decitabine; first compound 0.6325 µM)	relative viability (VX-702 + Decitabine; first compound 2 µM)	relative viability (VX-702 + Crizotinib; first compound 0.02 µM)	relative viability (VX-702 + Crizotinib; first compound 0.2 µM)	relative viability (VX-702 + Crizotinib; first compound 0.6325 µM)	relative viability (VX-702 + Crizotinib; first compound 2 µM)	relative viability (Dabrafenib + Palbociclib; first compound 0.003 µM)	relative viability (Dabrafenib + Palbociclib; first compound 0.009487 µM)	relative viability (Dabrafenib + Palbociclib; first compound 0.03 µM)	relative viability (Dabrafenib + Palbociclib; first compound 0.09487 µM)	relative viability (Dabrafenib + Palbociclib; first compound 0.3 µM)	relative viability (Dabrafenib + AZD7762; first compound 0.003 µM)
HCC-78	0.683	0.466	0.563	0.872	0.744	0.669	0.715	0.665	0.348	0.327	0.321	0.341	0.366	0.481	0.414	0.426	0.498	–
HCC-366	0.288	0.29	0.309	0.16	0.331	0.305	0.353	0.266	0.588	0.396	0.525	0.601	0.434	0.403	0.336	0.354	0.344	0.0302
HCC-827	0.234	0.216	–	0.276	0.295	0.31	0.337	0.189	0.922	0.9	0.869	0.906	0.465	0.3	0.374	–	0.525	0.129
IA-LM	–	–	–	–	–	–	–	–	0.792	0.862	0.722	1.05	–	–	–	–	–	–
NCI-H520	–	–	–	–	0.571	0.513	0.444	0.418	0.887	0.687	0.784	0.966	0.216	0.228	0.196	0.241	0.217	–
NCI-H522	0.936	0.717	0.88	0.841	0.684	0.775	0.646	0.753	–	–	–	–	–	1.02	0.932	0.952	1.08	–
NCI-H596	1.2	0.958	1.14	1.16	1.3	1.55	1.15	1.16	0.914	0.986	1.02	1.19	–	–	–	–	–	–
NCI-H661	–	–	–	–	0.567	0.583	0.58	0.591	1.08	0.977	0.939	1.11	0.383	0.406	0.426	0.458	0.433	–
NCI-H1299	–	–	–	–	–	–	–	–	1.07	0.97	0.942	1.07	–	–	–	–	–	–
NCI-H1395	0.385	0.402	0.424	0.412	0.664	0.714	0.728	0.64	–	–	–	–	–	0.655	0.623	0.642	0.623	–
NCI-H1563	–	–	–	–	–	–	–	–	0.848	0.875	0.83	0.865	–	–	–	–	–	–
NCI-H1648	0.797	–	0.611	0.802	0.443	0.457	0.469	0.481	–	–	–	–	0.317	0.215	–	0.251	0.329	0.638
NCI-H1650	–	–	–	–	0.477	0.422	0.44	0.46	1.19	1.05	1	1.24	0.332	0.382	0.235	0.301	0.358	–
NCI-H1703	–	–	–	0.136	–	–	–	–	0.645	0.585	0.608	0.78	–	–	–	–	–	–
NCI-H1793	0.489	–	0.493	0.434	0.545	–	0.449	0.458	–	–	–	–	–	0.411	–	0.289	0.291	–
NCI-H2009	–	–	–	–	0.392	0.435	0.454	0.399	1.11	1.13	1.18	1.25	0.153	0.22	0.179	0.149	0.128	–
NCI-H2023	–	–	–	–	0.23	0.219	0.211	0.231	0.586	0.563	0.555	0.698	0.419	0.417	0.48	0.371	0.421	–
NCI-H2228	–	–	–	–	–	–	–	–	0.628	0.536	0.394	0.45	0.502	0.801	0.753	0.668	0.7	–
NCI-H2342	0.486	0.417	0.481	0.55	0.788	0.821	0.697	0.754	–	–	–	–	0.511	0.566	0.474	0.608	0.523	0.364
SK-LU-1	–	–	–	–	0.625	0.61	0.653	0.702	0.96	0.751	0.934	0.963	–	0.395	0.238	0.365	0.371	–
SK-MES-1	–	–	–	–	0.387	0.388	0.308	0.297	0.989	0.94	0.986	1.09	–	0.296	0.27	0.258	0.31	–
SW 1573	–	–	–	–	0.518	0.434	0.412	0.437	0.8	0.721	0.773	0.784	0.431	0.484	0.363	0.349	0.392	–
UMC-11	–	–	–	–	0.515	0.616	0.643	0.791	0.578	0.596	0.512	0.692	0.33	0.31	0.288	0.327	0.349	–
